Assay type in all cases: biochemical
The target of test [1] is T1, JAK3 (Homo sapiens, UniProt P52333).
T1 sequence (P52333 1-1124): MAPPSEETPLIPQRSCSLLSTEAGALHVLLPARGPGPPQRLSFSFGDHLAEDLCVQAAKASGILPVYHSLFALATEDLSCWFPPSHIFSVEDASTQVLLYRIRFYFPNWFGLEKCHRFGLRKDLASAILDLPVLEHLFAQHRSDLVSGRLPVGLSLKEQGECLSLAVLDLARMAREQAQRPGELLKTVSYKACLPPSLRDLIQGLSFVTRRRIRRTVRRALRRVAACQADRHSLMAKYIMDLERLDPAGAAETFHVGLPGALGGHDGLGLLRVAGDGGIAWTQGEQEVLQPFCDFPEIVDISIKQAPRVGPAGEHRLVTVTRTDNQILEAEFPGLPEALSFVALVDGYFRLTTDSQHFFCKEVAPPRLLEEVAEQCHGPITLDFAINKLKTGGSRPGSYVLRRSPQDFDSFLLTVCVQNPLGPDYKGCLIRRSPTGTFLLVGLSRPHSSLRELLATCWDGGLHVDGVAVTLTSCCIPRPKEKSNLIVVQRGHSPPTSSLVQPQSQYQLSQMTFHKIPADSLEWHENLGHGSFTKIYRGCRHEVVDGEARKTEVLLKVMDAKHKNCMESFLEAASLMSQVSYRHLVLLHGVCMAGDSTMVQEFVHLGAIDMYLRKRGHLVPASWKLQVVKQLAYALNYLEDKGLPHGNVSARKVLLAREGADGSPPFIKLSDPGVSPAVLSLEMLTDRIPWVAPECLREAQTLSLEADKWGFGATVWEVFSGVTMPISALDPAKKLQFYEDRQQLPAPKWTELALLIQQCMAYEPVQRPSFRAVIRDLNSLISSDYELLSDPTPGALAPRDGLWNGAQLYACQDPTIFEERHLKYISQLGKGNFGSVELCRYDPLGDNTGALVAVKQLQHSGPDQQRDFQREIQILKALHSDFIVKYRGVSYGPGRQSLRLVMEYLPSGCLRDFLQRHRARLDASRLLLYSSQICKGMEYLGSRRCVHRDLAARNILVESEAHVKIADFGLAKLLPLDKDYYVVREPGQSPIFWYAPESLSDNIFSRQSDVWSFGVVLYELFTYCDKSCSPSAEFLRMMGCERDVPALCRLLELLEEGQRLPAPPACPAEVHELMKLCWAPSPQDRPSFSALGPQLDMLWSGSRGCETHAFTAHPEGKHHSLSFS
The test can be described thus: JAK3 inhibition assay (standard radioactive enzyme assay). Particulars: average Ki if more than one value determined. On the procedure:
(§1) Compounds were screened for their ability to inhibit JAK3 using a standard radioactive enzyme assay. 1.5 μL/well of a DMSO stock containing serial dilutions of a compound of the present invention (concentrations ranging from 667 μM to 46 nM) was placed in a 96 well polycarbonate plate. 50 μL per well of kinase buffer (100 mM HEPES (pH 7.4), 10 mM MgCl2, 25 mM NaCl, 1 mM DTT, and 0.01% bovine serum albumin (BSA)) containing 2 μM poly(Glu)4Tyr and 10 μM ATP was also added to the plate. To initiate the reaction, 50 μL kinase buffer containing 2 nM JAK3 enzyme was added. Final ATP concentration was 5 μM [γ-^33P] ATP (200 μCi ^33P ATP/μmol ATP (Perkin Elmer, Cambridge, Mass.). After 20 minutes at room temperature (25° C.), the reaction was stopped by adding 50 μL 20% trichloroacetic acid (TCA)/0.4 mM ATP to each well. The entire content of each well was then transferred to a 96 well glass fiber filter plate using a TomTek Cell Harvester. After washing, 60 μL scintillation fluid was added and ^33P incorporation detected using a Perkin Elmer TopCount. After removing mean background values for all of the data points the data was fit using Prism software to obtain a Ki(app). Inhibition of JAK2 was measured as above except that final poly(Glu)4Tyr concentration was 15 μM and final ATP concentration was 12 μM.

The target of test [2] is T2, ROCK I (AA 6-553) (Homo sapiens, UniProt Q13464).
T2 construct: ROCK I (AA 6-553)
In words: ROCK inhibition assay, standard coupled enzyme system ("Enzyme"). The conditions noted are these: enzyme-linked assay. In outline:
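ROCK I (AA 6-553) at 45 nM and 30 °C with 45 μM ATP and 200 μM peptide, in 100 mM HEPES pH 7.5, 10 mM MgCl2, 25 mM NaCl, 2 mM DTT, 1.5% DMSO. ADP output read by a PK/LDH coupled system: 2.5 mM PEP, 350 μM NADH, 30 μg/ml PK, 10 μg/ml LDH.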

For test [3], the target named is JAK2 (Homo sapiens, UniProt O60674). In words: JAK2 inhibition assay (radioactive enzyme assay, as for JAK3). Particulars: average Ki if more than one value determined. On the procedure: as §1
Chain of JAK2 (O60674 whole entry, species assumed): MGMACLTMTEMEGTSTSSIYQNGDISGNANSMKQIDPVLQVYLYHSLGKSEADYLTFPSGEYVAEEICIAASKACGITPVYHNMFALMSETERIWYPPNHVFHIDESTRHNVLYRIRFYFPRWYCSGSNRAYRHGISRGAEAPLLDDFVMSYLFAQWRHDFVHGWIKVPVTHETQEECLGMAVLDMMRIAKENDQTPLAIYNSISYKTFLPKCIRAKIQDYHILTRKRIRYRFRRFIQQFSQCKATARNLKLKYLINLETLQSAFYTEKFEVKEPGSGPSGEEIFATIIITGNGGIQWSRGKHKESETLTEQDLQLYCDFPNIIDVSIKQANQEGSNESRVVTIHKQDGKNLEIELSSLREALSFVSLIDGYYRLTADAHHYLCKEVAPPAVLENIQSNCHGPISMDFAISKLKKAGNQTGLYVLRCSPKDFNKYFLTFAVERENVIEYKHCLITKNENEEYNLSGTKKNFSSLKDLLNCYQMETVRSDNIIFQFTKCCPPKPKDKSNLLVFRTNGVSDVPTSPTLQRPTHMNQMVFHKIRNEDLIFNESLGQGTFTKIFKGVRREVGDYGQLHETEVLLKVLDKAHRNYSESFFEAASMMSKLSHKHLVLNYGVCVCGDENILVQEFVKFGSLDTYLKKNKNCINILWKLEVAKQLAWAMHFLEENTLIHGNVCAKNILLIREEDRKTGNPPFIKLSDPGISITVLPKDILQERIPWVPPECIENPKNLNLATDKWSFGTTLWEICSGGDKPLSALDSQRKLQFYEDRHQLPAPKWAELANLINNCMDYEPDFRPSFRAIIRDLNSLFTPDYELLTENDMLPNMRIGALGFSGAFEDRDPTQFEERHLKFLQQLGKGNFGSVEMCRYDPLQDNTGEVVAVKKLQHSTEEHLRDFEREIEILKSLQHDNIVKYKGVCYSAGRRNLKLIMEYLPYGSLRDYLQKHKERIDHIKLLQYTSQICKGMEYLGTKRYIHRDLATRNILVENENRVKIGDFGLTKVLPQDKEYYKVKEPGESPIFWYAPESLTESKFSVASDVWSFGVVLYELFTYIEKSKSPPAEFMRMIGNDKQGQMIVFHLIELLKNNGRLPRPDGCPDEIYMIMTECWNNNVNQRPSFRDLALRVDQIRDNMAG

T2 sequence (Q13464 6-553, species assumed): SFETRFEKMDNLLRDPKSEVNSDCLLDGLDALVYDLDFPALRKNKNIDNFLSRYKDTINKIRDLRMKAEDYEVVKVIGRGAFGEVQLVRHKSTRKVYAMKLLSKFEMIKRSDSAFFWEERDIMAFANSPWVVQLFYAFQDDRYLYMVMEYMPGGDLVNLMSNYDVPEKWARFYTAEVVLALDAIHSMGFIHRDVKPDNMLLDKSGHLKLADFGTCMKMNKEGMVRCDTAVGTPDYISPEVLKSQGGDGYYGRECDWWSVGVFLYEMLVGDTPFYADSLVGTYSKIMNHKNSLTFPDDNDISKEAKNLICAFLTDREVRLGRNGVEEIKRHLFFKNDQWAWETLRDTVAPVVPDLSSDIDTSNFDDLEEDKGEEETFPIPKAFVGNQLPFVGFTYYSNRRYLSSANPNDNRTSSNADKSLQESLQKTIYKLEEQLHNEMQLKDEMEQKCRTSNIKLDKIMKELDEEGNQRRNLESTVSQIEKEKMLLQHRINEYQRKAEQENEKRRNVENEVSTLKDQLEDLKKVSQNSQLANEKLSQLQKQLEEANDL

For the compound `CC(=O)N1CCCN(c2cccc(-c3c[nH]c4ncc(C(=O)O)cc34)n2)CC1` [Compound 126], the Ki is 500 to 5000 nM in test [1], 500 to 5000 nM in test [2] and over 5000 nM in test [3].

Take `CC(C)[C@@H](CO)Nc1cccc(-c2c[nH]c3ncc(Cl)cc23)n1` [Compound 134]: the Ki is under 500 nM in test [1], 500 to 5000 nM in test [2] and under 500 nM in test [3].

As for `CCOC(=O)c1cnc2[nH]cc(-c3cccc(N4C[C@@H](C)N(C(C)=O)[C@@H](C)C4)n3)c2c1` [Compound 73], the inhibition constant (Ki) in test [1], in test [2] and in test [3] was under 500 nM each time.

In the case of `NC(=O)c1ccc(-c2c[nH]c3ncc(Cl)cc23)nc1` [Compound 107], the Ki is under 500 nM in test [1], 500 to 5000 nM in test [2] and under 500 nM in test [3].

As to `CC(=O)N1[C@H](C)CN(c2cccc(-c3c[nH]c4ncc(C(=O)N5CCOCC5)cc34)n2)C[C@@H]1C` [Compound 51], the Ki in test [1], in test [2] and in test [3] was 500 to 5000 nM each time.

As to `CC(=O)N1[C@H](C)CN(c2cccc(-c3c[nH]c4ncc(C(=O)NCCN5CCOCC5)cc34)n2)C[C@@H]1C` [Compound 108], the Ki in test [1] was under 500 nM; in test [2], 500 to 5000 nM; in test [3], under 500 nM.

Consider `Clc1cnc2[nH]cc(-c3ccc4ccccc4c3)c2c1` [Compound 199], for which the Ki was under 500 nM in test [1], 500 to 5000 nM in test [2] and 500 to 5000 nM in test [3].

For the compound `COc1cccc(-c2c[nH]c3ncc(Cl)cc23)n1` [Compound 201], the Ki was under 500 nM in test [1], 500 to 5000 nM in test [2] and under 500 nM in test [3].

On to `CC(=O)N1[C@H](C)CN(c2cccc(-c3c[nH]c4ncc(NC(=O)c5ccc(F)cc5)cc34)n2)C[C@@H]1C` [Compound 189], for which the Ki in test [1] is under 500 nM; in test [2], 500 to 5000 nM; in test [3], under 500 nM.

Turning to `C=CC(=O)Nc1cnc2[nH]cc(-c3cccc(N4CCCN(C(C)=O)CC4)n3)c2c1` [Compound 139], the results for the Ki in test [1], in test [2] and in test [3] were under 500 nM, 500 to 5000 nM and under 500 nM, respectively.

For `Clc1cnc2[nH]cc(-c3ccc4ccccc4n3)c2c1` [Compound 195], the Ki in test [1] is under 500 nM; in test [2], 500 to 5000 nM; in test [3], 500 to 5000 nM.

As to `CC(=O)N1[C@H](C)CN(c2cccc(-c3c[nH]c4ncc(Cl)cc34)c2)C[C@@H]1C` [Compound 146], the Ki in test [1] was under 500 nM; in test [2], 500 to 5000 nM; in test [3], under 500 nM.

`O=C(O)Cc1cccc(-c2c[nH]c3ncc(Cl)cc23)c1` [Compound 178]: the Ki in test [1], in test [2] and in test [3] was 500 to 5000 nM in each case.

For `CC(=O)N1CCCN(c2cc(C#N)cc(-c3c[nH]c4ncc(Cl)cc34)n2)CC1` [Compound 149], the Ki in test [1] was under 500 nM; in test [2], 500 to 5000 nM; in test [3], under 500 nM.

With `COC(=O)Nc1cccc(-c2c[nH]c3ncc(Cl)cc23)n1` [Compound 87], the values for the inhibition constant (Ki) in test [1], in test [2] and in test [3] were under 500 nM, 500 to 5000 nM and under 500 nM, respectively.

Take `CC(C)(O)c1cccc(-c2c[nH]c3ncc(Cl)cc23)n1` [Compound 203]: the Ki in test [1] was under 500 nM; in test [2] it was 500 to 5000 nM; in test [3], under 500 nM.

Take `CC(=O)N1[C@H](C)CN(c2cccc(-c3c[nH]c4ncc(OCc5ccccc5)cc34)n2)C[C@@H]1C` [Compound 193]: the Ki in test [1], in test [2] and in test [3] was under 500 nM in each case.

Turning to `CC(=O)N1[C@H](C)CN(c2cccc(-c3c[nH]c4ncc(C(=O)NCCCN5CCN(C)CC5)cc34)n2)C[C@@H]1C` [Compound 109], the Ki in test [1] is under 500 nM; in test [2], 500 to 5000 nM; in test [3], under 500 nM.

As for `CC(=O)N1[C@H](C)CN(c2cccc(-c3c[nH]c4ncc(OCCN(C)C)cc34)n2)C[C@@H]1C` [Compound 94], the Ki in test [1], in test [2] and in test [3] was 500 to 5000 nM throughout.

What is called Ki is a dissociation constant, usually derived from enzyme kinetics or from competition with a known ligand.

Source of the values: patent US8501446B2 (Vertex Pharmaceuticals Incorporated, priority 2004, dated 2013).
